Test results from PMC4261083, “An atypical residue in the pore of Varroa destructor GABA-activated RDL receptors affects picrotoxin block and thymol modulation” (Insect Biochemistry and Molecular Biology, 2014).
Numbering of substitutions follows the chain as printed.

Legend:
Experiment in all cases: Thymol modulation of GABA concentration-response curves, two electrode voltage clamp in Xenopus oocytes
Type in all cases: cell-based
[1] = target: T1, N-7′H mutant Drosophila RDL receptor (Drosophila melanogaster, UniProt P25123, N292H); conditions: N-7′H RDL
T1 construct: expressed in transfected cells; host or cells: Xenopus laevis oocytes injected with cRNA
T1 sequence (P25123 45-606 N292H): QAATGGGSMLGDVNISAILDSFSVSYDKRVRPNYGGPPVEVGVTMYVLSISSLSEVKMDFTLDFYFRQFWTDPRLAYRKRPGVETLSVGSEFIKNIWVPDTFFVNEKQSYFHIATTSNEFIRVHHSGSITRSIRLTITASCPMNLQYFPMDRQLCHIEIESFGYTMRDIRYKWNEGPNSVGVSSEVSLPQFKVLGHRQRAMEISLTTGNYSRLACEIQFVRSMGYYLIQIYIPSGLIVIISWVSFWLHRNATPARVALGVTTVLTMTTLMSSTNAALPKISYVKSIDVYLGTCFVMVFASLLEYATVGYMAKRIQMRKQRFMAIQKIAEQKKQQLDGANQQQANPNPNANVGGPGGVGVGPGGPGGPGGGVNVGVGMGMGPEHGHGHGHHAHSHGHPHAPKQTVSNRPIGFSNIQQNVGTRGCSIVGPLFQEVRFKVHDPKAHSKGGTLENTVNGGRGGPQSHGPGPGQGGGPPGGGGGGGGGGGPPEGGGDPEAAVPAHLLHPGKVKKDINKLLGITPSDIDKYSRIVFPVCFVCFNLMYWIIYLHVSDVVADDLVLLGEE
Description: (§1) X. laevis oocyte-positive females were purchased from NASCO (Fort Atkinson, Wisconsin, USA) and maintained according to standard methods. Harvested stage V-VI Xenopus oocytes were washed in four changes of ND96 (96 mM NaCl, 2 mM KCl, 1 mM MgCl2, 1 mM CaCl2, 5 mM HEPES, pH 7.5), de-folliculated in 1.5 mg ml^−1 collagenase Type 1A for approximately 2 h, washed again in four changes of ND96 and stored in ND96 containing 2.5 mM sodium pyruvate, 0.7 mM theophylline and […].
(§2) Site directed mutagenesis was performed with the QuikChange mutagenesis kit (Agilent, La Jolla, CA). cRNA was transcribed in vitro from linearised pGEMHE cDNA template using the mMessage mMachine T7 Transcription kit (Ambion, Austin, Texas, USA). Stage V and VI oocytes were injected with 5 ng cRNA, incubated at 18 °C, and currents recorded 18–24 h post-injection.
(§3) Currents were recorded at 5 kHz and filtered at a frequency of 1 kHz. Micro-electrodes were fabricated from borosilicate glass (GC120TF-10, Harvard Apparatus, Edenbridge, Kent, UK) using a one stage horizontal pull (P-87, Sutter Instrument Company, California, USA) and filled with 3 M KCl. […] Oocytes were perfused with ND96 at a constant rate of 12 ml min^−1. Drug application was via a simple gravity fed system calibrated to run at the same rate.
(§4) Analysis and curve fitting was performed using Prism v5 (GraphPad Software, San Diego, California, USA). Concentration-response data for each oocyte was normalised to the maximum current for that oocyte. The mean and S.E.M. for a series of oocytes were fitted to the four parameter logistic equation in Prism.

[2] = target: T2, A20′S mutant Drosophila RDL receptor (Drosophila melanogaster, UniProt P25123, A319S)
T2 construct: expressed in transfected cells; host or cells: Xenopus laevis oocytes injected with cRNA
T2 sequence (P25123 45-606 A319S): T1 sequence (P25123 45-606 N292H) with H248N, A275S
Description: as §1, §2, §3, §4

[3] = target: T3, A21′Q mutant Drosophila RDL receptor (Drosophila melanogaster, UniProt P25123, A320Q)
T3 construct: expressed in transfected cells; host or cells: Xenopus laevis oocytes injected with cRNA
T3 sequence (P25123 45-606 A320Q): T1 sequence (P25123 45-606 N292H) with H248N, A276Q
Description: as §1, §2, §3, §4

[4] = GABA EC50 control vs +100 μM thymol
[5] = GABA concentration-response in presence of 100 μM thymol

## Cc1ccc(C(C)C)c(O)c1 [Thymol, thymol]
[1]; 100 μM thymol, 1 μM GABA
  Effect of thymol on GABA-induced responses: enhance
[1]; [4]
  Fold change in EC50: 2.7
[1]; [5]
  % Imax: 82 ± 4%
[2]; 100 μM thymol, 1 μM GABA
  Effect of thymol on GABA-induced responses: enhance
[2]; [4]
  Fold change in EC50: 5.0
[2]; [5]
  % Imax: 81 ± 6%
[3]; 100 μM thymol, 1 μM GABA
  Effect of thymol on GABA-induced responses: enhance
[3]; [4]
  Fold change in EC50: 3.6
[3]; [5]
  % Imax: 89 ± 4%
